One test concerns EGFR (del19/T790M/C797S). Put plainly: HTRF inhibitory activity assay against EGFR (del19/T790M/C797S) enzyme. The test is classed as biochemical. An outline of the steps:
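Wild-type or mutant EGFR preincubated with serially diluted compound 10 min at 28 °C, then reacted 40 min at room temperature with biotinylated TK substrate and ATP. Phosphorylation detected by HTRF (Eu-cryptate anti-TK antibody, streptavidin-XL665, 60 min), 665/615 nm ratio; % inhibition and IC50 vs control.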

Test [1] addresses Ba/F3 (EGFR^del19/T790M/C797S) triple-mutant cells (Homo sapiens, UniProt P00533, T790M/C797S, cells depend on it, form not given). Briefly: Antiproliferative activity against Ba/F3 (EGFR del19/T790M/C797S) triple-mutant cells, Cell Titer Glow. In kind it is cell-based. To be noted: three days after addition of compounds; read-out: Antiproliferative activity BaF3(EGFR^del19/T790M/C797S) IC50. On the procedure: (§1) Antiproliferative Activity of the Compounds Disclosed Herein Against Ba/F3 (EGFR^del19/T790M/C797S) Triple-Mutant Cells and A431 (EGFR WT) Cells
(§2) • 3000 Ba/F3 cells carrying EGFR (del19/T790M/C797S) or 2000 A431 cells were seeded in a 384-well plate. After one day, serially diluted compounds were added (up to 500 nM for Ba/F3 cells and up to 10 μM for A431 cells). Three days after the addition of the compounds, Cell Titer Glow was added to evaluate cell growth and the percentage cell growth inhibition by the compounds and the IC50 values were calculated.

Another test relates to A431 (EGFR WT) cells. Put plainly: Antiproliferative activity against A431 (EGFR WT) cells, Cell Titer Glow. To be noted: Homo sapiens, A-431, 72 h; three days after addition of compounds; read-out: Antiproliferative activity A431 wild-type (WT) IC50. In kind it is cell-based. On the procedure:
as §1, §2

The values below come from patent US12600714B2, “Substituted pyrazinecarboxamide compounds for treating diseases related to EGFR mutation” (WIGEN BIOMEDICINE TECHNOLOGY (SHANGHAI) CO., LTD., priority 2020, dated 2026).

pIC50: −log10 of the molar value.

Chain of Ba/F3 (EGFR^del19/T790M/C797S) triple-mutant cells (P00533 with tags, fused parts or gaps DEL746-750/T790M/C797S, form open): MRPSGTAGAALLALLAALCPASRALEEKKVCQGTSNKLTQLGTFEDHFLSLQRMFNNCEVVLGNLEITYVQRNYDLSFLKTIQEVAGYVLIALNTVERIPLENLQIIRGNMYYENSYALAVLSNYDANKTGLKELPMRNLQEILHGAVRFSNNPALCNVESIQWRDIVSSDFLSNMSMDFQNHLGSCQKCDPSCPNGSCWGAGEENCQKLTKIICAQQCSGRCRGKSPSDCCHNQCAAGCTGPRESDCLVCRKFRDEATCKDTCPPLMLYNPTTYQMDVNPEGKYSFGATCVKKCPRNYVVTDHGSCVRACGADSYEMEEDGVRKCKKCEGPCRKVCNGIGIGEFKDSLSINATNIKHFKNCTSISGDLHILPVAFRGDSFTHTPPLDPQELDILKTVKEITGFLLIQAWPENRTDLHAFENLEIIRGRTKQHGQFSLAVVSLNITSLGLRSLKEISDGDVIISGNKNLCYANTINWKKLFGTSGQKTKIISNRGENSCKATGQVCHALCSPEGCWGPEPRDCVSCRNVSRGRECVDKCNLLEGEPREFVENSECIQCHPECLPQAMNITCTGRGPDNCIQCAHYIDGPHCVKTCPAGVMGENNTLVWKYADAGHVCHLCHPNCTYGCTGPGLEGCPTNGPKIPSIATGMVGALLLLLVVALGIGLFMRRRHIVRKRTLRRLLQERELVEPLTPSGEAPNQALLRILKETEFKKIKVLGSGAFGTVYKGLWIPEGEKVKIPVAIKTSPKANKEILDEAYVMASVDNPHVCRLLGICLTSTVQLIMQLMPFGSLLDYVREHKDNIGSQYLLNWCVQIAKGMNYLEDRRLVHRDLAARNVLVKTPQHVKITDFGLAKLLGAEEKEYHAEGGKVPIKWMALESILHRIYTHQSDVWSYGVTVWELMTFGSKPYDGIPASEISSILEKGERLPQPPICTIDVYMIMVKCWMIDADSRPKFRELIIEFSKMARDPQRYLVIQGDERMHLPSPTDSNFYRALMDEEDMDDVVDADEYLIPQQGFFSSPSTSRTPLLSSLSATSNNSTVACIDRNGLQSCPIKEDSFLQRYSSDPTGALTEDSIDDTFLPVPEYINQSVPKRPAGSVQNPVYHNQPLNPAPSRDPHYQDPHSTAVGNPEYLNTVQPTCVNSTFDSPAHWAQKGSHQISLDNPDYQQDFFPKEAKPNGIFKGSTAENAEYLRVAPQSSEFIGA

`CN1CCN(C2CCN(c3ccc(Nc4nc(N[C@H]5C[C@@H](O)C5)c(-c5ccccc5)nc4C(N)=O)cc3)CC2)CC1` [compound 31]: in the test on EGFR (del19/T790M/C797S), the “EGFR (del19/T790M/C797S) inhibition (%) (0.3 nM compound)” value (“EGFR (del19/T790M/C797S) inhibition (%)” below) is given as “+++ (+++ indicates an inhibition greater than 50%.)”. For the same molecule, the GI50 in test [1] stood at 65 nM. Also, in the test with A431 (EGFR WT) cells, the pIC50 was 6.27.

Regarding `CN1CCN(C2CCN(c3ccc(Nc4nc(N[C@H]5C[C@H](O)C5)c(-c5ccccc5)nc4C(N)=O)cc3)CC2)CC1` [compound 32], the “EGFR (del19/T790M/C797S) inhibition (%)” value with EGFR (del19/T790M/C797S) is recorded as “+++ (+++ indicates an inhibition greater than 50%.)”. Further, the GI50 in test [1] stood at 26 nM. Moreover, the pIC50 with A431 (EGFR WT) cells is 6.72.

With `CN1CCN(C2CCN(c3ccc(Nc4nc(NC5CCOCC5)c(-c5cccnc5)nc4C(N)=O)cc3)CC2)CC1` [compound 37], in the test with EGFR (del19/T790M/C797S), the “EGFR (del19/T790M/C797S) inhibition (%)” value is on record as “+ (+ indicates an inhibition less than or equal to 20%)”. In addition, in test [1], the GI50 turned out to be 48 nM. Further, the pIC50 in the test on A431 (EGFR WT) cells was < 5.70.

Regarding `CN1CCN(C2CCN(c3ccc(Nc4nc(NCCS(C)(=O)=O)c(-c5ccccc5)nc4C(N)=O)cc3)CC2)CC1` [compound 54], the “EGFR (del19/T790M/C797S) inhibition (%)” value in the test on EGFR (del19/T790M/C797S) was “+ (+ indicates an inhibition less than or equal to 20%)”. The GI50 in test [1] is > 100 nM. Further, in the test on A431 (EGFR WT) cells, the pIC50 was 5.46.

Regarding `CN1CCN(C2CCN(c3ccc(Nc4nc(NC5CCOCC5)c(-c5ccccc5N(C)C)nc4C(N)=O)cc3)CC2)CC1` [compound 85], the GI50 in test [1] is 357 nM. The pIC50 in the test with A431 (EGFR WT) cells is 5.82.

Regarding `CN1CCN(C2CCN(c3ccc(Nc4nc(NC5CCOCC5)c(-c5cccc(N(C)C)c5)nc4C(N)=O)cc3)CC2)CC1` [compound 86], the GI50 in test [1] stood at 21 nM. In addition, in the test with A431 (EGFR WT) cells, the pIC50 is 5.77.

As to `CN1CCN(C2CCN(c3ccc(Nc4nc(NC5CCOCC5)c(-c5cncs5)nc4C(N)=O)cc3)CC2)CC1` [compound 88], the GI50 in test [1] worked out at 52 nM. Further, in the test with A431 (EGFR WT) cells, the pIC50 is 6.55.

Take `CN1CCN(C2CCN(c3ccc(Nc4nc(NC5CCOCC5)c(-c5ccc(O)cc5)nc4C(N)=O)cc3)CC2)CC1` [compound 96]: the “EGFR (del19/T790M/C797S) inhibition (%)” value with EGFR (del19/T790M/C797S) is on record as “++ (++ indicates an inhibition from 20% to 50%)”. The GI50 in test [1] was > 100 nM. In the test with A431 (EGFR WT) cells, the negative-log IC50 (pIC50) was 5.80.

For `Cc1cc(-c2nc(C(N)=O)c(Nc3ccc(N4CCC(N5CCN(C)CC5)CC4)cc3)nc2NC2CCOCC2)ccn1` [compound 108], the “EGFR (del19/T790M/C797S) inhibition (%)” value with EGFR (del19/T790M/C797S) was “+++ (+++ indicates an inhibition greater than 50%.)”. In addition, the GI50 in test [1] came out at 23 nM. The pIC50 with A431 (EGFR WT) cells is 6.72.

Consider `Cc1n[nH]cc1-c1nc(C(N)=O)c(Nc2ccc(N3CCC(N4CCN(C)CC4)CC3)cc2)nc1NC1CCOCC1` [compound 110], for which the “EGFR (del19/T790M/C797S) inhibition (%)” value in the test with EGFR (del19/T790M/C797S) is “+ (+ indicates an inhibition less than or equal to 20%)”. Besides, in test [1], the GI50 is > 100 nM. The pIC50 in the test on A431 (EGFR WT) cells was 6.34.

With `Cc1c[nH]nc1-c1nc(C(N)=O)c(Nc2ccc(N3CCC(N4CCN(C)CC4)CC3)cc2)nc1NC1CCOCC1` [compound 111], the “EGFR (del19/T790M/C797S) inhibition (%)” value in the test on EGFR (del19/T790M/C797S) is recorded as “+ (+ indicates an inhibition less than or equal to 20%)”. Also, the GI50 in test [1] was determined as 105 nM. Also, the pIC50 with A431 (EGFR WT) cells is 6.92.

On to `CO[C@H]1CC[C@H](Nc2nc(Nc3ccc(N4CCC(N5CCN(C)CC5)CC4)cc3)c(C(N)=O)nc2-c2ccccc2)CC1` [compound 115], for which the GI50 in test [1] stood at 214 nM. Further, in the test with A431 (EGFR WT) cells, the pIC50 was 5.70.

As for `CN1CCN(C2CCN(c3ccc(Nc4nc(O[C@@H]5CCN(CCO)C5)c(-c5ccccc5)nc4C(N)=O)cc3)CC2)CC1` [compound 131], the GI50 in test [1] was > 100 nM. Besides, the pIC50 in the test with A431 (EGFR WT) cells was < 5.00.

As for `CN1CCN(C2CCN(c3ccc(Nc4nc(NC5CCC(O)C5)c(-c5ccccc5)nc4C(N)=O)cc3)CC2)CC1` (centres unmarked) [compound 135, 5-((3-hydroxycyclopentyl)amino)-3-((4-(4-(4-methylpiperazin-1-yl)piperidin-1-yl)phenyl)amino)-6-phenylpyrazine-2-carboxamide], the GI50 in test [1] came to 40 nM. Further, the negative logarithm of the IC50 (pIC50) with A431 (EGFR WT) cells is 6.47.

Consider `CN1CCN(C2CCN(c3ccc(Nc4nc(N[C@@H]5CCC[C@H](O)C5)c(-c5ccccc5)nc4C(N)=O)cc3)CC2)CC1` [compound 141], for which the GI50 in test [1] worked out at 27 nM. In addition, the negative-log IC50 (pIC50) with A431 (EGFR WT) cells was 6.64.

In the case of `Cc1cc(Nc2nc(NC3CCOCC3)c(-c3ccncc3)nc2C(N)=O)ccc1N1CCN(C)CC1` [compound 148], in test [1], the GI50 was 68 nM. Besides, the pIC50 with A431 (EGFR WT) cells is 5.77.

Turning to `CCc1cc(Nc2nc(NC3CCOCC3)c(-c3ccncc3)nc2C(N)=O)ccc1N1CCC(N2CCN(C)CC2)CC1` [compound 161], the GI50 in test [1] is 54 nM. Further, the negative-log IC50 (pIC50) with A431 (EGFR WT) cells was 5.92.

As for `CN1CCN(c2ccc(Nc3nc(NC4CCOCC4)c(-c4cc[nH]n4)nc3C(N)=O)cc2)CC1` [compound 174], in test [1], the GI50 is 51 nM. The pIC50 in the test on A431 (EGFR WT) cells was 6.00.

Consider `CCc1cc(Nc2nc(NC3CCOCC3)c(-c3cc[nH]n3)nc2C(N)=O)ccc1N1CCC(N2CCN(C)CC2)CC1` [compound 184], for which the GI50 in test [1] amounted to 18 nM. Further, the pIC50 in the test on A431 (EGFR WT) cells was 6.01.

`Cc1cc(Nc2nc(NC3CCOCC3)c(-c3ccccn3)nc2C(N)=O)ccc1N1CCC(N2CCN(C)CC2)CC1` [compound 213]: the GI50 in test [1] amounted to 226 nM. Also, the pIC50 with A431 (EGFR WT) cells was < 5.00.

For the molecule `COc1cc(Nc2nc(NC3CCOCC3)c(-c3cc[nH]n3)nc2C(N)=O)ccc1N1CCC(N2CCN(C)CC2)CC1` [compound 417], in test [1], the GI50 amounted to 57 nM. Moreover, the pIC50 in the test on A431 (EGFR WT) cells is 6.72.

For `CC(C)c1cc(Nc2nc(NC3CCOCC3)c(-c3cc[nH]n3)nc2C(N)=O)ccc1N1CCC(N2CCN(C)CC2)CC1` [compound 420], the GI50 in test [1] came to 32 nM. Also, the pIC50 with A431 (EGFR WT) cells is 5.43.

With `CN1CCN(C2CCN(c3ccc(Nc4nc(NC5CCOCC5)c(-c5cc[nH]n5)nc4C(N)=O)cc3C3CC3)CC2)CC1` [compound 421], the GI50 in test [1] was 36 nM. In the test on A431 (EGFR WT) cells, the pIC50 was 6.28.

As to `COc1cc(Nc2nc(NC3CC4(COC4)C3)c(-c3cc[nH]n3)nc2C(N)=O)ccc1N1CCC(N2CCN(C)CC2)CC1` [compound 504], the GI50 in test [1] stood at 98 nM. Besides, in the test on A431 (EGFR WT) cells, the pIC50 was 6.48.

Take `Cc1cc(Nc2nc(NC3CCOCC3)c(-c3cccc4[nH]ccc34)nc2C(N)=O)ccc1N1CCC(N2CCN(C)CC2)CC1` [compound 513]: in test [1], the GI50 was 57 nM. In addition, in the test with A431 (EGFR WT) cells, the negative-log IC50 (pIC50) was 6.25.

With `Cc1cc(Nc2nc(NC3CCOCC3)c(-c3ccnc4[nH]ccc34)nc2C(N)=O)ccc1N1CCC(N2CCN(C)CC2)CC1` [compound 514], the GI50 in test [1] was determined as 48 nM. In addition, in the test on A431 (EGFR WT) cells, the pIC50 is 6.60.

With `CCc1cc(Nc2nc(NC3CCOCC3)c(-c3cccc4[nH]ccc34)nc2C(N)=O)ccc1N1CCC(N2CCN(C)CC2)CC1` [compound 515], the GI50 in test [1] amounted to 42 nM. For the same molecule, in the test on A431 (EGFR WT) cells, the pIC50 was 6.28.

Regarding `CCc1cc(Nc2nc(NC3CCOCC3)c(-c3ccnc4[nH]ccc34)nc2C(N)=O)ccc1N1CCC(N2CCN(C)CC2)CC1` [compound 516], the GI50 in test [1] was determined as 42 nM. For the same molecule, in the test on A431 (EGFR WT) cells, the pIC50 is 6.46.

For `CN1CCN(C2CCN(c3ccc(Nc4nc(NC5CCOCC5)c(-c5cncc6[nH]ccc56)nc4C(N)=O)cc3)CC2)CC1` [compound 538], in test [1], the GI50 is 35 nM. In addition, the pIC50 with A431 (EGFR WT) cells was 6.54.

As for `CN1CCN(C2CCN(c3ccc(Nc4nc(NC5CCOCC5)c(-c5cccc6[nH]cnc56)nc4C(N)=O)cc3)CC2)CC1` [compound 540], in test [1], the GI50 came out at 48 nM. Further, the pIC50 in the test with A431 (EGFR WT) cells is 5.92.
